Experimental data: patent US6545007B2, “Methods for inhibiting the transmission of HIV using topically applied substituted 6-benzyl-4-oxopyrimidines” (Idenix (Cayman) Limited, priority 2000, dated 2003)
Like-named read-outs stand apart in the source and are kept apart here.

Tests used:
HIV-1 (IIIB strain) = type: cell-based; conditions: for EC50: anti-HIV-1 activity; for SI: selectivity index (CC50/EC50)
Description: Compounds. Compounds were solubilized in DMSO at 200 mM and then diluted into culture medium.
(§1) Cells and viruses. MT-4, C8166,H9/IIIB and CEM cells were grown at 37° C. in a 5% CO2 atmosphere in RPMI 1640 medium, supplemented with 10% fetal calf serum (FCS), 100 IU/mL penicillin and 100 μg/mL streptomycin. Cell cultures were checked periodically for the absence of mycoplasma contamination with a MycoTect Kit (Gibco). Human immunodeficiency virus type-I (HIV-1, IIIB strain) was obtained from supernatants of persistently infected H9/IIIB cells.
HIV Titration. Titration of HIV was performed in C8166 cells by the standard limiting dilution method (dilution 1:2, four replica wells per dilution) in 96-well plates. The infectious virus titre was determined by light microscope scoring of cytopathicity after 4 days of incubation and the virus titres were expressed as CCID50/mL.
(§2) Anti-HIV Assays. Activity of the compounds against HIV-1 and HIV-2 multiplication in acutely infected cells was based on the inhibition of virus-induced cytopathicity in MT-4 and C8166 cells, respectively. Briefly, 50 μL of culture medium containing 1×10^4 cells were added to each well of flat-bottom microtiter trays containing 50 μl of culture medium with or without various concentrations of the test compounds. Then 20 μL of an HIV suspension containing 100 CCID50 were added. After a 4-day incubation at 37° C., the number of viable cells was determined by the 3-(4,5-dimethylthiazol-[…])-2,5-diphenyltetrazolium bromide (MTT) method. Cytotoxicity of the compounds was evaluated in parallel with their antiviral activity. It was based on the viability of mock-infected cells, as monitored by the MTT method.

mock-infected MT-4 cells = test: Cytotoxicity: viability of mock-infected cells by the MTT method; type: cell-based, human
Description: as §1, §2

[1] = acutely infected MT-4 cells, MTT

| Structure (SMILES) | EC50 (HIV-1 (IIIB strain); HIV-1-infected MT-4 cells) [µM] | EC50 (HIV-1 (IIIB strain); [1]) [µM] | CC50 (mock-infected MT-4 cells) [µM] | SI (HIV-1 (IIIB strain)) | CC50 (mock-infected MT-4 cells; MTT) [µM] |
| --- | --- | --- | --- | --- | --- |
| CCC(C)Sc1nc(C(c2ccccc2)c2ccccc2)cc(=O)[nH]1 (stereo not drawn) [MC 796] | > 61 | – | 61 | – | – |
| CC(C)Sc1nc(Cc2c(Cl)cccc2Cl)cc(=O)[nH]1 [MC 878] | 1.9 | – | > 200 | >105 | – |
| CCC(C)Sc1nc(Cc2ccc(OC)cc2)cc(=O)[nH]1 (stereo not drawn) [MC 964] | 14 | – | 147 | 10.5 | – |
| CCC(C)Sc1nc(Cc2cc(F)cc(F)c2)cc(=O)[nH]1 (stereo not drawn) [MC 1041] | 1.4 | – | > 200 | >143 | – |
| CCC(C)Sc1nc(Cc2ccc(F)cc2)c(C)c(=O)[nH]1 (stereo not drawn) [MC 919] | 11 | – | 105 | 9.5 | – |
| CC(C)Nc1nc(C(C)c2c(F)cccc2F)cc(=O)[nH]1 (stereo not drawn) [MC 1191] | – | 0.03 | – | – | 115 |
| CCC(C)Sc1nc(Cc2ccc(C)cc2)c(C)c(=O)[nH]1 (stereo not drawn) [MC 845] | 0.8 | – | 26 | 32 | – |
| CCC(c1cc(=O)[nH]c(SC2CCCCC2)n1)c1c(Cl)cccc1Cl (stereo not drawn) [MC 1003] | 3.6 | – | > 200 | >55.5 | – |
| Cc1c(Cc2c(Cl)cccc2Cl)nc(SC2CCCCC2)[nH]c1=O [MC 917] | 22 | – | > 200 | >9 | – |
| CC(C)CSc1nc(C(C)c2c(F)cccc2F)cc(=O)[nH]1 (stereo not drawn) [MC 1044] | 0.05 | – | > 200 | >4,000 | – |
| CCC(c1cc(=O)[nH]c(SC2CCCC2)n1)c1cccc2ccccc12 (stereo not drawn) [MC 973] | 3 | – | 51 | 17 | – |
| CNc1nc(Cc2c(F)cccc2F)cc(=O)[nH]1 [MC 1167] | 1.5 | – | > 200 | >133 | – |
| CCN(CC)c1nc(Cc2c(F)cccc2F)cc(=O)[nH]1 [MC 1202] | – | 0.26 | – | – | > 200 |
| CCC(C)Sc1nc(Cc2ccccc2Cl)c(C)c(=O)[nH]1 (stereo not drawn) [MC 909] | 0.27 | – | > 200 | >741 | – |
| Cc1c(Cc2c(F)cccc2F)nc(NC2CCCC2)[nH]c1=O [MC 1050] | 0.02 | – | > 200 | >10,000 | – |
| CC(c1cc(=O)[nH]c(SC2CCCC2)n1)c1c(F)cccc1F (stereo not drawn) [MC 1008] | 0.03 | – | > 200 | >6,666 | – |
| CNc1nc(C(C)c2c(F)cccc2F)cc(=O)[nH]1 (stereo not drawn) [MC 1178] | – | 0.11 | – | – | 106 |
| Cc1c(C(C)c2c(F)cccc2F)nc(SC2CCCC2)[nH]c1=O (single isomer, unassigned) [MC 1047−] | – | 0.7 | – | – | > 200 |
| CNc1nc(Cc2c(F)cccc2F)c(C)c(=O)[nH]1 [MC 1168] | 0.4 | – | 135 | 335 | – |

| Structure (SMILES) | EC50 (HIV-1 (IIIB strain); HIV-1-infected MT-4 cells) [µM] | EC50 (HIV-1 (IIIB strain); [1]) [µM] | CC50 (mock-infected MT-4 cells) [µM] | SI (HIV-1 (IIIB strain)) | CC50 (mock-infected MT-4 cells; MTT) [µM] |
| --- | --- | --- | --- | --- | --- |
| Cc1c(Cc2c(F)cccc2F)nc(N2CCOCC2)[nH]c1=O [MC 1205] | – | 0.047 | – | – | > 200 |
| O=c1cc(Cc2c(F)cccc2F)nc(N2CCSCC2)[nH]1 [MC 1193] | – | 0.05 | – | – | > 200 |
| CCC(C)Sc1nc(C(C)c2c(F)cccc2F)c(C)c(=O)[nH]1 (stereo not drawn) [MC 1109] | 0.03 | – | 200 | 6,666 | – |
| CC(c1cc(=O)[nH]c(NC2CCCC2)n1)c1c(F)cccc1F (stereo not drawn) [MC 1048] | 0.03 | – | 75 | 2,500 | – |
| CCC(C)Sc1nc(Cc2cccc(OC)c2)cc(=O)[nH]1 (stereo not drawn) [MC 957] | 1.2 | – | > 200 | >166 | – |
| CCC(c1ccccc1)c1cc(=O)[nH]c(SC(C)C)n1 (stereo not drawn) [MC 899] | 0.8 | – | 200 | 250 | – |
| CCC(c1cc(=O)[nH]c(SC(C)C)n1)c1cccc2ccccc12 (stereo not drawn) [MC 969] | 1.5 | – | 50 | 33.3 | – |
| Cc1c(Cc2c(F)cccc2F)nc(N(C)C)[nH]c1=O [MC 1195] | – | 0.02 | – | – | > 200 |
| CCC(c1cc(=O)[nH]c(SC2CCCCC2)n1)c1cccc2ccccc12 (stereo not drawn) [MC 975] | 0.18 | – | 16.9 | 94 | – |
| O=c1cc(Cc2c(F)cccc2F)nc(NC2CCCCC2)[nH]1 [MC 1049] | 0.14 | – | 66 | 471 | – |
| Cc1c(C(C)c2c(F)cccc2F)nc(NC2CCCCC2)[nH]c1=O (stereo not drawn) [MC 1181] | – | 0.03 | – | – | 58 |
| CCC(c1cc(=O)[nH]c(SC2CCCC2)n1)c1c(F)cccc1F (stereo not drawn) [MC 1006] | 0.15 | – | 200 | 1,333 | – |
| CC(C)Sc1nc(Cc2c(F)cccc2F)cc(=O)[nH]1 [MC 860] | 0.2 | – | > 200 | >1,000 | – |
| CC(c1cc(=O)[nH]c(NC2CCCCC2)n1)c1c(F)cccc1F (stereo not drawn) [MC 1180] | – | 0.02 | – | – | 56 |
| CCC(C)Sc1nc(C(C)c2c(F)cccc2F)cc(=O)[nH]1 (stereo not drawn) [MC 1110] | 0.03 | – | > 200 | >6,666 | – |
| CSCSc1nc(Cc2ccccc2)cc(=O)[nH]1 [MC 1140] | – | 20 | – | – | > 200 |
| CCC(C)Sc1nc(Cc2ccccc2F)c(C)c(=O)[nH]1 (stereo not drawn) [MC 913] | 0.41 | – | 140 | 341 | – |
| O=c1cc(Cc2c(F)cccc2F)nc(NC2CCCC2)[nH]1 [MC 1022] | 0.09 | – | > 200 | >2,222 | – |
| O=c1cc(Cc2c(F)cccc2F)nc(N2CCCC2)[nH]1 [MC 1196] | – | 2.1 | – | – | > 200 |

The next lines start with results.

| EC50 (HIV-1 (IIIB strain); HIV-1-infected MT-4 cells) [µM] | EC50 (HIV-1 (IIIB strain); [1]) [µM] | Structure (SMILES) | CC50 (mock-infected MT-4 cells) [µM] | SI (HIV-1 (IIIB strain)) | CC50 (mock-infected MT-4 cells; MTT) [µM] |
| --- | --- | --- | --- | --- | --- |
| 1.17 | – | CCCCSc1nc(Cc2c(Cl)cccc2Cl)c(C)c(=O)[nH]1 [MC 920] | > 200 | >171 | – |
| 0.6 | – | CC(c1ccccc1)c1cc(=O)[nH]c(SC2CCCCC2)n1 (stereo not drawn) [MC 898] | 149 | 248 | – |
| 9.5 | – | CCC(C)Sc1nc(Cc2ccc(Cl)cc2)c(C)c(=O)[nH]1 (stereo not drawn) [MC 911] | > 200 | 20 | – |
| – | 0.09 | Cc1c(Cc2c(F)cccc2F)nc(N2CCSCC2)[nH]c1=O [MC 1206] | – | – | > 200 |
| 0.08 | – | Cc1c(Cc2c(F)cccc2F)nc(SC2CCCC2)[nH]c1=O [MC 922] | > 200 | >2,500 | – |
| 1.8 | – | Cc1c(Cc2c(Cl)cccc2Cl)nc(SC2CCCC2)[nH]c1=O [MC 915] | > 200 | >111 | – |
| 0.6 | – | O=c1cc(Cc2c(Cl)cccc2Cl)nc(SC2CCCCC2)[nH]1 [MC 891] | > 200 | >333 | – |
| 0.1 | – | CCCCNc1nc(Cc2c(F)cccc2F)cc(=O)[nH]1 [MC 1077] | 100 | 1,000 | – |
| – | 0.12 | CSCSc1nc(Cc2c(F)cccc2F)c(C)c(=O)[nH]1 [MC 1162, 6-(2,6-Difluorophenylmethyl)-3,4-dihydro-5-methyl-2-(methylthiomethyl)thiopyrimidin-4(3H)-one] | – | – | 30 |
| 0.81 | – | CSc1nc(Cc2c(F)cccc2F)cc(=O)[nH]1 [MC 871] | 200 | 247 | – |
| – | 0.02 | O=c1cc(Cc2c(F)cccc2F)nc(N2CCCCC2)[nH]1 [MC 1194] | – | – | > 200 |
| 8.7 | – | CCC(C)Sc1nc(Cc2ccc(F)cc2)cc(=O)[nH]1 (stereo not drawn) [MC 889] | > 200 | 23 | – |
| 0.35 | – | CCC(C)Sc1nc(Cc2cccc([N+](=O)[O-])c2)c(C)c(=O)[nH]1 (stereo not drawn) [MC 925] | > 200 | >571 | – |
| 0.5 | – | Cc1c(Cc2c(F)cccc2F)nc(NCc2ccccc2)[nH]c1=O [MC 1105] | 50 | 100 | – |
| 1.2 | – | CC(C)Sc1nc(C(C)c2c(Cl)cccc2Cl)cc(=O)[nH]1 (stereo not drawn) [MC 1001] | 117 | 97.5 | – |
| – | 0.05 | CN(C)c1nc(Cc2c(F)cccc2F)cc(=O)[nH]1 [MC 1182, 6-(2,6-Difluorophenylmethyl)-3,4-dihydro-2-N,N-dimethylaminopyrimidin-4-(3H)-one] | – | – | > 200 |
| 3.4 | – | Cc1ccccc1Cc1cc(=O)[nH]c(SC2CCCC2)n1 [MC 842] | > 200 | >59 | – |
| – | 0.01 | CCCCNc1nc(C(C)c2c(F)cccc2F)c(C)c(=O)[nH]1 (stereo not drawn) [MC 1187] | – | – | 83 |
| 0.05 | – | CCC(C)Sc1nc(Cc2c(Cl)cccc2Cl)c(C)c(=O)[nH]1 (stereo not drawn) [MC 850] | > 200 | >4,000 | – |
| 0.03 | – | Cc1c(Cc2c(F)cccc2F)nc(NC(C)C)[nH]c1=O [MC 1118] | 190 | 6,333 | – |
| – | 0.04 | CCC(C)Nc1nc(C(C)c2c(F)cccc2F)cc(=O)[nH]1 (stereo not drawn) [MC 1192] | – | – | 86 |
| 5.3 | – | CCc1c(Cc2cccc3ccccc23)nc(SC(C)CC)[nH]c1=O (stereo not drawn) [MC 804] | > 200 | >34 | – |
| 0.05 | – | Cc1c(Cc2c(F)cccc2F)nc(SC(C)C)[nH]c1=O [MC 881] | > 200 | >4,000 | – |
